Patent US20240158446A1, “CYCLIC COMPOUND HAVING SELECTIVE INHIBITORY ACTION ON KRAS OVER HRAS AND NRAS” (CHUGAI SEIYAKU KABUSHIKI KAISHA, priority 2021, published 2024)

Experiments:
[1] = target: GDP-bound HRAS wild-type protein (Homo sapiens, UniProt P01112); assay: Binding to HRAS by surface plasmon resonance (SPR), Single Cycle Kinetics; settings: SPR, GDP-bound HRAS wild-type protein vs GDP-bound KRAS wild-type protein
[2] = target: GDP-bound NRAS wild-type protein (Homo sapiens, UniProt P01111); assay: Binding to NRAS by surface plasmon resonance (SPR), Single Cycle Kinetics; settings: SPR, GDP-bound NRAS wild-type protein vs GDP-bound KRAS wild-type protein
GDP-bound NRAS wild-type protein, sequence (P01111 whole entry): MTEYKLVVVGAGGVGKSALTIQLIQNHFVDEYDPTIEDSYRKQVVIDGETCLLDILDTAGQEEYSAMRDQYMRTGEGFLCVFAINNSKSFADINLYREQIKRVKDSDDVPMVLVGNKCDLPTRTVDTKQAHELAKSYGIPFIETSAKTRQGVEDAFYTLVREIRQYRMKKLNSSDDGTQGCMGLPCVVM

GDP-bound HRAS wild-type protein, sequence (P01112 whole entry): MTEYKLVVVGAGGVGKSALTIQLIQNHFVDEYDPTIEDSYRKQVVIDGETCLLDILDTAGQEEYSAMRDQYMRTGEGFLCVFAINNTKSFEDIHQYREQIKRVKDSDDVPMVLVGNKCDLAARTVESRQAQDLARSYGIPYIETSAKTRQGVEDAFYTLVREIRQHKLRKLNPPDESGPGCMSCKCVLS

| Compound | HRAS/KRAS (ratio of KD value for HRAS to KD value for KRAS) [1] | NRAS/KRAS (ratio of KD value for NRAS to KD value for KRAS) [2] |
| --- | --- | --- |
| C=CCN1CC(=O)N(C)[C@H]2C/C=C\CCN(C2=O)[C@@H](Cc2ccc(C)cc2)C(=O)N(C)CC(=O)N[C@@H](CCc2ccc(C(F)(F)F)c(OC)c2)C(=O)N2C[C@H](OCC)C[C@H]2C(=O)NC2(CC(C)(C)C2)C(=O)N(C)[C@@H](C2CCCC2)C(=O)N(C)[C@H](C(=O)N(C)C)CC(=O)N(C)[C@@H](CC(C)C)C(=O)N[C@@H]([C@@H](C)CC)C1=O [PP2058] | A (a compound having 10 or more and less than 20 is denoted as A) | A (a compound having 10 or more and less than 20 is denoted as A) |
| C#CC[C@H]1C(=O)N[C@@H]([C@@H](C)CC)C(=O)N(C)CC(=O)N(C)[C@H]2C/C=C\CCN(C2=O)[C@@H](Cc2ccc(C(F)(F)F)cc2)C(=O)N(C)CC(=O)N[C@@H](CCc2ccc(C(F)(F)F)c(OC)c2)C(=O)N2C[C@@H](C)C[C@H]2C(=O)NC2(CCC2)C(=O)N(C)[C@@H](C2CCCC2)C(=O)N(C)[C@H](C(=O)N(C)CCC)CC(=O)N1C [PP2063] | A (a compound having 10 or more and less than 20 is denoted as A) | AA (a compound having 20 or more is denoted as AA) |
| CC[C@H](C)[C@@H]1NC(=O)[C@H](C2CCC2)N(C)C(=O)C[C@@H](C(=O)N(C)CC)N(C)C(=O)[C@H](C2CCCC2)N(C)C(=O)C2(CCC2)NC(=O)[C@@H]2C[C@H](C)CN2C(=O)[C@H](CCc2cc(F)c(C(F)(F)F)c(F)c2)NC(=O)CN(C)C(=O)[C@H](Cc2ccc(C(F)(F)F)cc2)N2CC/C=C\C[C@@H](C2=O)N(C)C(=O)CN(C)C1=O [PP2082] | A (a compound having 10 or more and less than 20 is denoted as A) | AA (a compound having 20 or more is denoted as AA) |
| CCC[C@H]1C(=O)N[C@@H]([C@@H](C)CC)C(=O)N(C2CC2)CC(=O)N(C)[C@H]2C/C=C\CCN(C2=O)[C@@H](Cc2ccc(C)cc2)C(=O)N(C)CC(=O)N[C@@H](CCc2ccc(C(F)(F)F)c(OC)c2)C(=O)N2C[C@H](OCC)C[C@H]2C(=O)NC2(CC(C)(C)C2)C(=O)N(C)[C@@H](C2CCCC2)C(=O)N(C)[C@H](C(=O)N(C)C)CC(=O)N1C [PP2097] | A (a compound having 10 or more and less than 20 is denoted as A) | A (a compound having 10 or more and less than 20 is denoted as A) |
| C#CCN1CC(=O)N(C)[C@H]2C/C=C\CCN(C2=O)[C@@H](Cc2ccc(C)cc2)C(=O)N(C)CC(=O)N[C@@H](CCc2ccc(C(F)(F)F)c(OC)c2)C(=O)N2C[C@H](OCC)C[C@H]2C(=O)NC2(CC(C)(C)C2)C(=O)N(C)[C@@H](C2CCCC2)C(=O)N(C)[C@H](C(=O)N(C)C)CC(=O)N(C)[C@@H](CCC)C(=O)N[C@@H]([C@@H](C)CC)C1=O [PP2099] | A (a compound having 10 or more and less than 20 is denoted as A) | A (a compound having 10 or more and less than 20 is denoted as A) |
| CCC[C@H]1C(=O)N[C@@H]([C@@H](C)CC)C(=O)N(CCC)CC(=O)N(C)[C@H]2C/C=C\CCN(C2=O)[C@@H](Cc2ccc(C)cc2)C(=O)N(C)CC(=O)N[C@@H](CCc2cc(F)c(C(F)(F)F)c(F)c2)C(=O)N2C[C@H](OCC)C[C@H]2C(=O)NC2(CC(C)(C)C2)C(=O)N(C)[C@@H](C2CCCC2)C(=O)N(C)[C@H](C(=O)N(C)C)CC(=O)N1C [PP2108] | A (a compound having 10 or more and less than 20 is denoted as A) | A (a compound having 10 or more and less than 20 is denoted as A) |
| CCO[C@@H]1C[C@H]2C(=O)NC3(CC(C)(C)C3)C(=O)N(C)[C@@H](C(CC)CC)C(=O)N(C)[C@H](C(=O)N3CCCC3)CC(=O)N(C)[C@@H](COC)C(=O)N[C@@H]([C@@H](C)CC)C(=O)N(C)CC(=O)N(C)[C@H]3C/C=C\CCN(C3=O)[C@@H](Cc3ccc(C)cc3)C(=O)N(C)CC(=O)N[C@@H](CCc3cc(F)c(C(F)(F)F)c(F)c3)C(=O)N2C1 [PP2139] | A (a compound having 10 or more and less than 20 is denoted as A) | AA (a compound having 20 or more is denoted as AA) |
| CCO[C@@H]1C[C@H]2C(=O)NC3(CC(C)(C)C3)C(=O)N(C)[C@@H](C(CC)CC)C(=O)N(C)[C@H](C(=O)N(C)C)CC(=O)N(C)[C@@H](CC(C)C)C(=O)N[C@@H]([C@@H](C)CC)C(=O)N(C)CC(=O)N(C)[C@H]3C/C=C\CCN(C3=O)[C@@H](Cc3ccc(C)cc3)C(=O)N(C)CC(=O)N[C@@H](CCc3cc(F)c(C(F)(F)F)c(F)c3)C(=O)N2C1 [PP2141] | A (a compound having 10 or more and less than 20 is denoted as A) | A (a compound having 10 or more and less than 20 is denoted as A) |
| CCO[C@@H]1C[C@H]2C(=O)NC3(CC(C)(C)C3)C(=O)N(C)[C@@H](C(CC)CC)C(=O)N(C)[C@H](C(=O)N(C)C)CC(=O)N(C)[C@@H](CC3CC3)C(=O)N[C@@H]([C@@H](C)CC)C(=O)N(C)CC(=O)N(C)[C@H]3C/C=C\CCN(C3=O)[C@@H](Cc3ccc(C)cc3)C(=O)N(C)CC(=O)N[C@@H](CCc3ccc(C(F)(F)F)c(Cl)c3)C(=O)N2C1 [PP2142] | A (a compound having 10 or more and less than 20 is denoted as A) | AA (a compound having 20 or more is denoted as AA) |
| CCO[C@@H]1C[C@H]2C(=O)NC3(CC(C)(C)C3)C(=O)N(C)[C@@H](C(CC)CC)C(=O)N(C)[C@H](C(=O)N(C)C)CC(=O)N(C)[C@@H](CC(C)C)C(=O)N[C@@H]([C@@H](C)CC)C(=O)N(C)CC(=O)N(C)[C@H]3C/C=C\CCN(C3=O)[C@@H](Cc3ccc(C)cc3)C(=O)N(C)CC(=O)N[C@@H](CCc3ccc(C(F)(F)F)c(Cl)c3)C(=O)N2C1 [PP2148] | A (a compound having 10 or more and less than 20 is denoted as A) | A (a compound having 10 or more and less than 20 is denoted as A) |
| CCO[C@@H]1C[C@H]2C(=O)NC3(CC(C)(C)C3)C(=O)N(C)[C@@H](C(CC)CC)C(=O)N(C)[C@H](C(=O)N(C)C)CC(=O)N(C)[C@@H](C(C)C)C(=O)N[C@@H]([C@@H](C)CC)C(=O)N(C)CC(=O)N(C)[C@H]3C/C=C\CCN(C3=O)[C@@H](Cc3ccc(C)cc3)C(=O)N(C)CC(=O)N[C@@H](CCc3cc(F)c(C(F)(F)F)c(F)c3)C(=O)N2C1 [PP2153] | A (a compound having 10 or more and less than 20 is denoted as A) | A (a compound having 10 or more and less than 20 is denoted as A) |
| CCO[C@@H]1C[C@H]2C(=O)NC3(CC(C)(C)C3)C(=O)N(C)[C@@H](C(CC)CC)C(=O)N(C)[C@H](C(=O)N(C)C)CC(=O)N(C)[C@@H](C(C)C)C(=O)N[C@@H]([C@@H](C)CC)C(=O)N(C)CC(=O)N(C)[C@H]3C/C=C\CCN(C3=O)[C@@H](Cc3ccc(C)cc3)C(=O)N(C)CC(=O)N[C@@H](CCc3ccc(C(F)(F)F)c(Cl)c3)C(=O)N2C1 [PP2158] | A (a compound having 10 or more and less than 20 is denoted as A) | AA (a compound having 20 or more is denoted as AA) |
| CCC[C@H]1C(=O)N[C@@H]([C@@H](C)CC)C(=O)N(C)CC(=O)N(C)[C@H]2C/C=C\CCN(C2=O)[C@@H](Cc2ccc(C(F)(F)F)cc2)C(=O)N(C)CC(=O)N[C@@H](CCc2ccc(Cl)c(Cl)c2)C(=O)N2C[C@H](OCC)C[C@H]2C(=O)NC2(CC(C)(C)C2)C(=O)N(C)[C@@H](C(CC)CC)C(=O)N(C)[C@H](C(=O)N(C)C)CC(=O)N1C [PP2175] | A (a compound having 10 or more and less than 20 is denoted as A) | AA (a compound having 20 or more is denoted as AA) |
| CCO[C@@H]1C[C@H]2C(=O)NC3(CC(C)(C)C3)C(=O)N(C)[C@@H](C(CC)CC)C(=O)N(C)[C@H](C(=O)N(C)C)CC(=O)N(C)[C@@H](CC)C(=O)N[C@@H]([C@@H](C)CC)C(=O)N(C)CC(=O)N(C)[C@H]3C/C=C\CCN(C3=O)[C@@H](Cc3ccc(C(F)(F)F)cc3)C(=O)N(C)CC(=O)N[C@@H](CCc3ccc(Cl)c(Cl)c3)C(=O)N2C1 [PP2179] | A (a compound having 10 or more and less than 20 is denoted as A) | AA (a compound having 20 or more is denoted as AA) |
| CCO[C@@H]1C[C@H]2C(=O)NC3(CC(C)(C)C3)C(=O)N(C)[C@@H](C(CC)CC)C(=O)N(C)[C@H](C(=O)N(C)C)CC(=O)N(C)[C@@H](CC3CC3)C(=O)N[C@@H]([C@@H](C)CC)C(=O)N(C)CC(=O)N(C)[C@H]3C/C=C\CCN(C3=O)[C@@H](Cc3ccc(C)cc3)C(=O)N(C)CC(=O)N[C@@H](CCc3ccc(Cl)c(Cl)c3)C(=O)N2C1 [PP2182] | A (a compound having 10 or more and less than 20 is denoted as A) | AA (a compound having 20 or more is denoted as AA) |
| CC[C@H](C)[C@@H]1NC(=O)[C@H](CC(C)C)N(C)C(=O)C[C@@H](C(=O)N(C)C)N(C)C(=O)[C@H](C2CCCC2)N(C)C(=O)C2(CCCC2)NC(=O)[C@@H]2C[C@@H](C)CN2C(=O)[C@H](CCc2cc(F)c(C(F)(F)F)c(F)c2)NC(=O)CN(C)C(=O)[C@H](Cc2ccc(C)cc2)N2CC/C=C\C[C@@H](C2=O)N(C)C(=O)CN(C)C1=O [PP2189] | A (a compound having 10 or more and less than 20 is denoted as A) | A (a compound having 10 or more and less than 20 is denoted as A) |
